Test results published in BindingDB's records for patent US20250313563 (The Broad Institute, 2025).
Where “and” joins values, the source holds several entries; their conditions need not be identical. Equal values may be shown once.

Each compound was assayed against Glycogen synthase kinase-3 beta (Homo sapiens, UniProt P49841) (assay: TR-FRET Assay).
Procedure: The assay was performed in a white, 384 well, low volume, flat bottom plate (Grenier). […] The kinase activity was quenched with 2 μL of 250 mM EDTA. A 10 μL volume of 40 nM Strepavidin-d2, 2 nM Tb2+-pSer641 antibody in TR-FRET Detection Buffer (Invitrogen) was then added.

Sequence of Glycogen synthase kinase-3 beta (P49841 whole entry): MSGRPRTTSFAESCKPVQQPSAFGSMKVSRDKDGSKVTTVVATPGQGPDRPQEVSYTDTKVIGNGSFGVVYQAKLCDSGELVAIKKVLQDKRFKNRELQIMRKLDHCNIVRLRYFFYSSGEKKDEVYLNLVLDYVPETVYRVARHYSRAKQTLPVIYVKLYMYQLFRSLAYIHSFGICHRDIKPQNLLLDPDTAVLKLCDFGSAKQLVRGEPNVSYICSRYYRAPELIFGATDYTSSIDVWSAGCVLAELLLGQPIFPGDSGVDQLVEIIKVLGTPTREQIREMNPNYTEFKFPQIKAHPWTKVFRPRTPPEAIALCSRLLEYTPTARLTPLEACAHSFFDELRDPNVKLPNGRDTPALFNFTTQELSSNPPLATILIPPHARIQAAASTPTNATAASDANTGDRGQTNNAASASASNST

| SMILES | IC50 |
| --- | --- |
| CC[C@@]1(c2cccc(S(=O)(=O)C(C)C)c2)C2=CN=NC2NC2=C1C(=O)CC(C)(C)C2 (stereo partly drawn) [US20250313563, Compound 913135] | 0.1 to 1 µM |
| CCCS(=O)(=O)c1cccc([C@@]2(CC)C3=CN=NC3NC3=C2C(=O)CC(C)(C)C3)c1 (stereo partly drawn) [US20250313563, Compound 929447] | < 0.1 µM and 0.1 to 1 µM |
| CC[C@]1(c2cccc(C(F)(F)F)c2)C2=C(N=NC2)NC2=C1C(=O)N(C)[C@H]2C [US20250313563, Compound 913473] | 0.1 to 1 µM |
| CC[C@]1(c2cccc(-c3ccnn3C)c2)C2=CN=NC2NC2=C1C(=O)CC(C)(C)C2 (stereo partly drawn) [US20250313563, Compound 911992] | 0.1 to 1 µM |
| CC[C@]1(c2cccc(C(F)(F)F)c2)C2=CN=NC2NC2=C1C(=O)N(c1ccccc1)CC2 (stereo partly drawn) [US20250313563, Compound 929474] | 0.1 to 1 µM |
| CC[C@]1(c2cccc(S(C)(=O)=O)c2)C2=CN=NC2NC2=C1C(=O)CC(C)(C)C2 (stereo partly drawn) [US20250313563, Compound 826718] | < 0.1 µM and 0.1 to 1 µM |
| CN1C[C@@]2(C3=C(CC(C)(C)CC3=O)NC3N=NC(CC(C)(C)C)=C32)c2ccccc21 (stereo partly drawn) [US20250313563, Compound 125979] | 1 to 5 µM |
| CC[C@@]1(c2cccc(N3CCCC3)c2)C2=C(CC(C)(C)CC2=O)NC2N=NC(C)=C21 (stereo partly drawn) [US20250313563, Compound 883874] | 0.1 to 1 µM |
| CC[C@]1(c2cccc(-c3ccncc3F)c2)C2=CN=NC2NC2=C1C(=O)CC(C)(C)C2 (stereo partly drawn) [US20250313563, Compound 943518] | 0.1 to 1 µM |
| CC(C)(C)CC1N=NC2=C1[C@@](C)(c1ccccc1)C1=C(CC(C)(C)NC1=O)N2 (stereo partly drawn) [US20250313563, Compound 114532] | > 5 µM |
| CC(C)(C)CC1N=NC2=C1[C@@](C)(c1cccc(N3C=COCC3)c1)C1=C(CC(C)(C)CC1=O)N2 (stereo partly drawn) [US20250313563, Compound 126399] | > 5 µM |
| CC[C@]1(c2cccc(-c3ccncc3F)c2)C2=C(CC(C)(C)CC2=O)NC2N=NC(C)=C21 (stereo partly drawn) [US20250313563, Compound 913052] | 0.1 to 1 µM |
| CC[C@@]1(c2cccc(OC)c2)C2=C(CC(C)(C)CC2=O)NC2N=NC(C(=O)OC)=C21 (stereo partly drawn) [US20250313563, Compound 901480] | 0.1 to 1 µM |
| CC(C)(C)CC1=C2C(N=N1)NC1=C(C(=O)CC(C)(C)C1)[C@]21CCc2c(F)cccc21 (stereo partly drawn) [US20250313563, Compound 791256] | 1 to 5 µM |
| CC1(C)CC(=O)C2=C(C1)NC1N=NC(C3CC(F)(F)C3)=C1[C@]21COc2ccccc21 (stereo partly drawn) [US20250313563, Compound 127429] | 1 to 5 µM |
| CC[C@@]1(c2cccc(C3=CN=NC3)c2)C2=C(CC(C)(C)CC2=O)NC2N=NC(C)=C21 (stereo partly drawn) [US20250313563, Compound 913025] | 0.1 to 1 µM |
| CC1(C)CC(=O)C2=C(C1)NC1=C(CN=N1)[C@]21CCN(S(=O)(=O)c2ccccc2F)C1 [US20250313563, Compound 943487] | 0.1 to 1 µM |
| CC[C@]1(c2cccc(-c3cnn4c3CCCC4)c2)C2=C(CC(C)(C)CC2=O)NC2N=NC(C)=C21 (stereo partly drawn) [US20250313563, Compound 913036] | 0.1 to 1 µM |

Continued, values first:

| IC50 | SMILES |
| --- | --- |
| 0.1 to 1 µM | COc1cccc(S(=O)(=O)N2CCC3(CC2)C2=C(N=NC2)NC2=C3C(=O)CC(C)(C)C2)c1 [US20250313563, Compound 943962] |
| 0.1 to 1 µM | CC[C@]1(c2cccc(-c3ccncc3OC)c2)C2=CN=NC2NC2=C1C(=O)CC(C)(C)C2 (stereo partly drawn) [US20250313563, Compound 945481] |
| 0.1 to 1 µM | CC[C@]1(c2cccc(-c3c(F)cncc3OC)c2)C2=CN=NC2NC2=C1C(=O)CC(C)(C)[C@@H]2F (stereo partly drawn) [US20250313563, Compound 948546] |
| 0.1 to 1 µM | CC[C@@]1(c2cccc(-c3cnn(Cc4ccc(C(F)(F)F)cc4)c3)c2)C2=CN=NC2NC2=C1C(=O)NC(C)(C)C2 (stereo partly drawn) [US20250313563, Compound 951849] |
| 0.1 to 1 µM | CC[C@@]1(c2cccc(C(F)(F)F)c2)C2=CN=NC2NC2=C1C(=O)C[C@]1(CCNC1=O)C2 (stereo partly drawn) [US20250313563, Compound 950324] |
| 0.1 to 1 µM | CC1(C)CC(=O)C2=C(C1)NC1=C(CN=N1)[C@]21COC2(CN(C(=O)C3CCOCC3)C2)C1 [US20250313563, Compound 945407] |
| 0.1 to 1 µM | CCCn1nccc1-c1cccc([C@]2(CC)C3=CN=NC3NC3=C2C(=O)CC(C)(C)C3)c1 (stereo partly drawn) [US20250313563, Compound 946093] |
| 0.1 to 1 µM | CC[C@@]1(c2cccc(Oc3ncccn3)c2)C2=C(CC(C)(C)CC2=O)NC2N=NC(C(F)(F)F)=C21 (stereo partly drawn) [US20250313563, Compound 951604] |
| 0.1 to 1 µM | CC[C@@]1(c2cccc(-c3c(F)cncc3OC)c2)C2=C(N=NC2)NC2=C1C(=O)N(Cc1ccccc1)C2 [US20250313563, Compound 948550] |
| 1 to 5 µM | CC[C@@]1(c2cccc(-c3cn(C)nc3C)c2)C2=CN=NC2NC2=C1C(=O)N(C)C(C)(C)C2 (stereo partly drawn) [US20250313563, Compound 949005] |
| 0.1 to 1 µM | CCN(c1cccc([C@@]2(CC)C3=CN=NC3NC3=C2C(=O)CC(C)(C)C3)c1)c1ncccn1 (stereo partly drawn) [US20250313563, Compound 947333] |
| 0.1 to 1 µM | CC[C@]1(c2cccc(C(F)(F)F)c2)C2=CN=NC2NC2=C1C(=O)N(c1ccccc1C)CC2 (stereo partly drawn) [US20250313563, Compound 949128] |
| 0.1 to 1 µM | CC[C@]1(c2cccc(-c3ccnc(C)c3)c2)C2=CN=NC2NC2=C1C(=O)N(C)C(C)(C)C2 (stereo partly drawn) [US20250313563, Compound 949004] |
| 0.1 to 1 µM | CC[C@]1(c2cccc(C(F)(F)F)c2)C2=C(N=NC2)NC2=C1C(=O)N[C@@H]2C [US20250313563, Compound 945378] |
| < 0.1 µM and 0.1 to 1 µM | CC[C@@]1(c2cccc(-c3cncn3C(C)C)c2)C2=CN=NC2NC2=C1C(=O)CC(C)(C)C2 (stereo partly drawn) [US20250313563, Compound 945725] |
| 0.1 to 1 µM | Cn1ccc(S(=O)(=O)N2CC[C@@]3(C2)C2=C(N=NC2)NC2=C3C(=O)CC(C)(C)C2)n1 [US20250313563, Compound 945712] |
| 0.1 to 1 µM | CC[C@@]1(c2cccc(-c3ccnc4c3CCCC4)c2)C2=CN=NC2NC2=C1C(=O)CC(C)(C)C2 (stereo partly drawn) [US20250313563, Compound 944033] |
| 0.1 to 1 µM | CC[C@]1(c2cccc(Nc3ncccn3)c2)C2=CN=NC2NC2=C1C(=O)CC(C)(C)C2 (stereo partly drawn) [US20250313563, Compound 945943] |
| 0.1 to 1 µM | CC[C@]1(c2cccc(-c3cc(C)nn3C)c2)C2=CN=NC2NC2=C1C(=O)NC(C)(C)C2 (stereo partly drawn) [US20250313563, Compound 943966] |
| 0.1 to 1 µM | CC[C@@]1(c2cccc(N3CCCCC3)c2)C2=C(CC(C)(C)NC2=O)NC2N=NC(C(F)(F)F)=C21 (stereo partly drawn) [US20250313563, Compound 949183] |
| 0.1 to 1 µM | CC[C@@]1(c2cccc(S(=O)(=O)C(C)C)c2)C2=C(CC(C)(C)NC2=O)NC2N=NC(C)=C21 (stereo partly drawn) [US20250313563, Compound 947876] |
| 0.1 to 1 µM | CC[C@]1(c2cccc(N(C)c3nccc(C)n3)c2)C2=CN=NC2NC2=C1C(=O)CC(C)(C)C2 (stereo partly drawn) [US20250313563, Compound 945328] |
| 0.1 to 1 µM | CC[C@@]1(c2cccc(C(F)(F)F)c2)C2=C(CCN(c3cnc(OC)nc3)C2=O)NC2N=NC(C)=C21 (stereo partly drawn) [US20250313563, Compound 949126] |
| 0.1 to 1 µM | CC1(C)CC(=O)C2=C(C1)NC1=C(CN=N1)[C@]21CCN(S(=O)(=O)c2ccccc2)C1 [US20250313563, Compound 951787] |
| < 0.1 µM and 0.1 to 1 µM | CC[C@]1(c2cccc(-c3c(C)cncc3C)c2)C2=CN=NC2NC2=C1C(=O)CC(C)(C)C2 (stereo partly drawn) [US20250313563, Compound 947658] |
